Results published in publication PMC6576746, “Rational discovery of dual-indication multi-target PDE/Kinase inhibitor for precision anti-cancer therapy using structural systems pharmacology” (PLoS Computational Biology, 2019).

How the values were obtained:
[1] = molecular target: PIP5K1A (Homo sapiens, UniProt Q99755); assay: KinomeScan competition binding assay; design: DiscoverX KinomeScan panel kinase; details: 10 μM levosimendan
[2] = molecular target: STK16 (Homo sapiens, UniProt O75716); assay: biochemical; design: DiscoverX KinomeScan competition binding assay across human kinases; per cent of control at 10 and 100 uM; details: competition binding, % of control; read-out: Percent Control (100 uM Levosimendan)
In short: (§1)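 KinomeScan competition binding was run across a human kinase panel at 10 μM and 100 μM levosimendan. Results are %control = (test − positive control)/(negative control − positive control) × 100.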

[3] = molecular target: MAPKAPK5 (Homo sapiens, UniProt Q8IW41); assay: biochemical; design: DiscoverX KinomeScan competition binding assay across human kinases; per cent of control at 10 and 100 uM; details: competition binding, % of control; read-out: Percent Control (100 uM Levosimendan)
Sequence of MAPKAPK5 (Q8IW41 whole entry): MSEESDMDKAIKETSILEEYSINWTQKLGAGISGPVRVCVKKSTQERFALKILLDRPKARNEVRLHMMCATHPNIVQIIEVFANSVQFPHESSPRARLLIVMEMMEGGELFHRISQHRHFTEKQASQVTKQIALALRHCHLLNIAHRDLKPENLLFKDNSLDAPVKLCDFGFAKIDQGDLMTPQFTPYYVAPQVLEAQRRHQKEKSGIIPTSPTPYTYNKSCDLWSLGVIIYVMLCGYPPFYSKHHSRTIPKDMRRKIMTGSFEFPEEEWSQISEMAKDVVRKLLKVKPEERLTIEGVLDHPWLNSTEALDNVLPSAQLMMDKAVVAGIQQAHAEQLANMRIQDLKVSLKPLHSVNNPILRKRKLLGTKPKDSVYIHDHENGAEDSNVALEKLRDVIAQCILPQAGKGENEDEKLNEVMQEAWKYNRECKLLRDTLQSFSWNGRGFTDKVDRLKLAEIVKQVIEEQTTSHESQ
In short: as §1

[4] = molecular target: MAP4K2 (Homo sapiens, UniProt Q12851); assay: biochemical; design: DiscoverX KinomeScan competition binding assay across human kinases; per cent of control at 10 and 100 uM; details: competition binding, % of control; read-out: Percent Control (100 uM Levosimendan)
Sequence of MAP4K2 (Q12851 whole entry): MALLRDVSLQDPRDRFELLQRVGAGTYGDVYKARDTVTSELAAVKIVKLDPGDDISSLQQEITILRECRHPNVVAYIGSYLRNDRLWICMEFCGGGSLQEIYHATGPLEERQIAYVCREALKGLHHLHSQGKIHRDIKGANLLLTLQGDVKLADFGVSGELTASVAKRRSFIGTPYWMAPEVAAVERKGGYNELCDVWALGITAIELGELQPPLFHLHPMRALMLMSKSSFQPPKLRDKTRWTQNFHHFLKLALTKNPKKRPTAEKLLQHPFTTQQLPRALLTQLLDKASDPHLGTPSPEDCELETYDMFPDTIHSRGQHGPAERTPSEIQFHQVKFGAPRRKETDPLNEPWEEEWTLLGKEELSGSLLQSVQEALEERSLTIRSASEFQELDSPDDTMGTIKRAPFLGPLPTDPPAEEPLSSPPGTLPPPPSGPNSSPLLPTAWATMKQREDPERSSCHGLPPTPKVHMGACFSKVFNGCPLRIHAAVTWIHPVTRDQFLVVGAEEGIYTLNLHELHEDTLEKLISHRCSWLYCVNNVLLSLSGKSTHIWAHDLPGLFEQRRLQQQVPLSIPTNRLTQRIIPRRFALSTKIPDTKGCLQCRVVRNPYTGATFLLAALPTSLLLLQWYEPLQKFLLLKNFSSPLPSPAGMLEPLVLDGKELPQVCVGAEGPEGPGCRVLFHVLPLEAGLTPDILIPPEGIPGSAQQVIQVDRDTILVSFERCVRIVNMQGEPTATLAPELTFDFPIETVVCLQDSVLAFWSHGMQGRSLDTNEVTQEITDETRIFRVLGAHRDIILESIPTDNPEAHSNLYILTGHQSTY
In short: as §1

[5] = molecular target: SRPK3 (Homo sapiens, UniProt Q9UPE1); assay: biochemical; design: DiscoverX KinomeScan competition binding assay across human kinases; per cent of control at 10 and 100 uM; details: competition binding, % of control; read-out: Percent Control (100 uM Levosimendan)
Sequence of SRPK3 (Q9UPE1 whole entry): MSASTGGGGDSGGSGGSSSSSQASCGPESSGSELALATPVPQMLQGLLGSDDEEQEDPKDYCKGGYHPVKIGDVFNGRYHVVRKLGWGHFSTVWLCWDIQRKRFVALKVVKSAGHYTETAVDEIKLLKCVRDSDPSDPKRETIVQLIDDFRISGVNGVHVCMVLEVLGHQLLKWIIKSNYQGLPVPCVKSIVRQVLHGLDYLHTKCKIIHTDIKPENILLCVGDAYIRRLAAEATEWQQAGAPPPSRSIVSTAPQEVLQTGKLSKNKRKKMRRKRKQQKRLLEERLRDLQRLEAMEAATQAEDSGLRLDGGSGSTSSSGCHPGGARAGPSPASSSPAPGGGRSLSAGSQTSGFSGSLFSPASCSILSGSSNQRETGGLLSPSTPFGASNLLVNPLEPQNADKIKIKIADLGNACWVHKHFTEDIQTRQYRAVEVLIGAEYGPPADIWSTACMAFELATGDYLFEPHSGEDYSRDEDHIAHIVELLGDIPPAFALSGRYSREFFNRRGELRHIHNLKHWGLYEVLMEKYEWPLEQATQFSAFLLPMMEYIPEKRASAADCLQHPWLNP
In short: as §1

[6] = molecular target: PIK3CA(E545K) (Homo sapiens, UniProt P42336, E545K); assay: biochemical; design: DiscoverX KinomeScan competition binding assay across human kinases; per cent of control at 10 and 100 uM; details: competition binding, % of control; read-out: Percent Control (100 uM Levosimendan)
Sequence of PIK3CA(E545K) (P42336 whole entry E545K): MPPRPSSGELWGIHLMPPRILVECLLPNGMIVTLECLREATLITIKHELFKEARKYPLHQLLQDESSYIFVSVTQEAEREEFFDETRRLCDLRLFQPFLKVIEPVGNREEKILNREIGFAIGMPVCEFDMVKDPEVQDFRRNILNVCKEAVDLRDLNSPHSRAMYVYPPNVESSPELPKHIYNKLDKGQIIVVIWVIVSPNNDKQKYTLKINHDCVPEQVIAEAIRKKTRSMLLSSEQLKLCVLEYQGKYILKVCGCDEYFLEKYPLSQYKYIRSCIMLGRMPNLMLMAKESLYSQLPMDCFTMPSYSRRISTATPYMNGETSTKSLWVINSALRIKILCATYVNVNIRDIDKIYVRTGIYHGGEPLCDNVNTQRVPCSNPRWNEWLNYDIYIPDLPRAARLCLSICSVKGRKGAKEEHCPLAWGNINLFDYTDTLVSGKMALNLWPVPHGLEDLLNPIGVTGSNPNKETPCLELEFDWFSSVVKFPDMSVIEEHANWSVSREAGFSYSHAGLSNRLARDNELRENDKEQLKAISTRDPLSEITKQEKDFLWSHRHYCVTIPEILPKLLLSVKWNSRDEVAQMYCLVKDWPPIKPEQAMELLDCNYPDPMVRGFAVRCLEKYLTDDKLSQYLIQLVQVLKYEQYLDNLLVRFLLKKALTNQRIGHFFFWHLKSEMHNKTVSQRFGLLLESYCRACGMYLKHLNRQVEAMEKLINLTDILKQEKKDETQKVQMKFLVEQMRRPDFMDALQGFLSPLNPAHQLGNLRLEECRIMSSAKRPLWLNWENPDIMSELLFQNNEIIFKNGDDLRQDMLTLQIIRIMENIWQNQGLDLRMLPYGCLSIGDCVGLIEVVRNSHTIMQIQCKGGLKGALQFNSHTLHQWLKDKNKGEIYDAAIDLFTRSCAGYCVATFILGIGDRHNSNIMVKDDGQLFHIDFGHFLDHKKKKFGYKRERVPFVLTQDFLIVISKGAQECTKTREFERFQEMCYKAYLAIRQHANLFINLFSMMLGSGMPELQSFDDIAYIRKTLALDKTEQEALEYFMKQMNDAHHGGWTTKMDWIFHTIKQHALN
In short: as §1

[7] = molecular target: T1, CDC2L5 (Homo sapiens, UniProt Q14004); assay: biochemical; design: DiscoverX KinomeScan competition binding assay across human kinases; per cent of control at 10 and 100 uM; details: competition binding, % of control; read-out: Percent Control (100 uM Levosimendan)
T1 construct: gene CDK13
In short: as §1

[8] = molecular target: BRSK2 (Homo sapiens, UniProt Q8IWQ3); assay: biochemical; design: DiscoverX KinomeScan competition binding assay across human kinases; per cent of control at 10 and 100 uM; details: competition binding, % of control; read-out: Percent Control (100 uM Levosimendan)
Sequence of BRSK2 (Q8IWQ3 whole entry): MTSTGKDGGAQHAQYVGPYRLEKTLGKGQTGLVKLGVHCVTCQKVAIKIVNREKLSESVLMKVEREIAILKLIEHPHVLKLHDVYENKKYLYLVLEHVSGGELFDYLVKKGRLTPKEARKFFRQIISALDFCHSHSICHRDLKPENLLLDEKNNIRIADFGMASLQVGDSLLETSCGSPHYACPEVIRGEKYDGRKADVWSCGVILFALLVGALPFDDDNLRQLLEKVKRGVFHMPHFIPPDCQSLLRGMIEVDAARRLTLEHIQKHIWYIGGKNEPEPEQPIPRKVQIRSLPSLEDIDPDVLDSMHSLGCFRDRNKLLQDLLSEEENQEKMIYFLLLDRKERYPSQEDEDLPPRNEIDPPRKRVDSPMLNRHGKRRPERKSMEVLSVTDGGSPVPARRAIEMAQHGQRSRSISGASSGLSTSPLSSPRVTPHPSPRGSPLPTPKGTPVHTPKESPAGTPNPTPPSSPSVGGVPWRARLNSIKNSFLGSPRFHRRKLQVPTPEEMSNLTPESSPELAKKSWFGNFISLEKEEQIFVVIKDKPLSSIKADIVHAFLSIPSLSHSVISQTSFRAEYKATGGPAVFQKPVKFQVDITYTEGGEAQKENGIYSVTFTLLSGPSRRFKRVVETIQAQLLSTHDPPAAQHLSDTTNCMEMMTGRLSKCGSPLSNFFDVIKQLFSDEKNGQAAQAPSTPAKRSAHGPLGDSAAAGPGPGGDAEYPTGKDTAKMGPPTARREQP
In short: as §1

[9] = molecular target: EGFR(L858R,T790M) (Homo sapiens, UniProt P00533, L858R/T790M); assay: biochemical; design: DiscoverX KinomeScan competition binding assay across human kinases; per cent of control at 10 and 100 uM; details: competition binding, % of control; read-out: Percent Control (100 uM Levosimendan)
In short: as §1

[10] = molecular target: WEE1 (Homo sapiens, UniProt P30291); assay: biochemical; design: DiscoverX KinomeScan competition binding assay across human kinases; per cent of control at 10 and 100 uM; details: competition binding, % of control; read-out: Percent Control (100 uM Levosimendan)
Sequence of WEE1 (P30291 whole entry): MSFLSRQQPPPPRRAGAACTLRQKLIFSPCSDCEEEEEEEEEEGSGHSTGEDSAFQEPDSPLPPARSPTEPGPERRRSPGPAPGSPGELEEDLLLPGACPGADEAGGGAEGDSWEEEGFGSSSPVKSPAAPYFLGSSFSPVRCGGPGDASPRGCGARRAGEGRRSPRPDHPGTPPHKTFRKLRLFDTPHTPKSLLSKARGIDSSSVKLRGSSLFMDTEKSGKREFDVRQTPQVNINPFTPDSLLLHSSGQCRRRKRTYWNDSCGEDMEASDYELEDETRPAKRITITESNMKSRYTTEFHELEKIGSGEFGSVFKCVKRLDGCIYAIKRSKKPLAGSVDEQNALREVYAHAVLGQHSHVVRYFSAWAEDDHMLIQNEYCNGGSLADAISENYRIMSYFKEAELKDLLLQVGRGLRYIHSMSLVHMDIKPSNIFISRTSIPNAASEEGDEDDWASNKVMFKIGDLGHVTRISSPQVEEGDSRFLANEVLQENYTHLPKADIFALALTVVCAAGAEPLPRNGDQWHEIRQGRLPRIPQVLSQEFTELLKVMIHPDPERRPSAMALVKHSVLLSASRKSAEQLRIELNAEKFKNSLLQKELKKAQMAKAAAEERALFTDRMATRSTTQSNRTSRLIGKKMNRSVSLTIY
In short: as §1

[11] = molecular target: CDKL3 (Homo sapiens, UniProt Q8IVW4); assay: biochemical; design: DiscoverX KinomeScan competition binding assay across human kinases; per cent of control at 10 and 100 uM; details: competition binding, % of control; read-out: Percent Control (100 uM Levosimendan)
In short: as §1

[12] = molecular target: T2, MAP2K5 (Homo sapiens, UniProt Q13163); assay: KinomeScan competition binding assay; details: 10 μM levosimendan
T2 construct: DiscoverX KinomeScan panel kinase

Sequence of PIP5K1A (Q99755 whole entry): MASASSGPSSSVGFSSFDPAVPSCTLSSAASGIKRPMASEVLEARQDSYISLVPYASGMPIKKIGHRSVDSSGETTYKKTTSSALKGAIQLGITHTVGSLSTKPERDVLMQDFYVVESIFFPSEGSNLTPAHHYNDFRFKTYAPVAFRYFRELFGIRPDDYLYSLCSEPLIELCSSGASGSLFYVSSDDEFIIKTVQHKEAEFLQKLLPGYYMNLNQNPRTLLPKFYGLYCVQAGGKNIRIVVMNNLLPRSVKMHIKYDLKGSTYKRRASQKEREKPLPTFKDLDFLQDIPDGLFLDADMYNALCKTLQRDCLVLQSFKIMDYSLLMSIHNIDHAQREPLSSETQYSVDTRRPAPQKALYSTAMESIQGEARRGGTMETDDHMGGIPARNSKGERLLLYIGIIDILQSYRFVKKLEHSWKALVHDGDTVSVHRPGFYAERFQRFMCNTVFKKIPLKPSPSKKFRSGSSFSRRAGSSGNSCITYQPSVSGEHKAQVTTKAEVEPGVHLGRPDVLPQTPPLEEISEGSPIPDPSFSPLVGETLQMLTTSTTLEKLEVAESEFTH

percentage control at 10 μM [1]: < 30.0%
remaining binding at 100 µM [2]: 80%
remaining binding at 100 µM [3]: 100%
remaining binding at 100 µM [4]: 100%
remaining binding at 100 µM [5]: 63%
remaining binding at 100 µM [6]: 58%
remaining binding at 100 µM [7]: 100%
remaining binding at 100 µM [8]: 100%
remaining binding at 100 µM [9]: 82%
remaining binding at 100 µM [10]: 100%
remaining binding at 100 µM [11]: 100%
percentage control at 10 μM [12]: < 30.0%
Compound: C[C@@H]1CC(=O)NN=C1c1ccc(NN=C(C#N)C#N)cc1 [levosimendan]
